Test results: patent US7198775B2, “Detectably labeled porphyrin compound for identifying the sentinel lymph node” (The Trustees of Columbia University in the City of New York, priority 2000, dated 2007)

Legend:
lymph nodes = experiment: dye tested on rabbits for staining of the lymph nodes; type: in vivo
From the text: The present invention in one embodiment therefore acts as a dye that stains the lymphatic channels of the body for identification of the sentinel lymph node.

[1] = rats bearing tumors; cited from earlier work

| Substance | staining of the lymph nodes (lymph nodes) | in vivo stability of the complex [1] | tissue distribution (accumulation of most of the product) [1] | tumor uptake [1] |
| --- | --- | --- | --- | --- |
| Tc-99m Phthalocyanine Tetrasulfonate [Tc-99m-PCTS] | successfully shown to stain the lymph nodes | – | – | – |
| ^99Tc-labeled-tetrasulfophtalocyanine [[^99Tc] TSPC] | – | absence of ^99Tc accumulation in the thyroid and the stomach | accumulated in the liver, kidneys, ovaries, and uterus | occurred mainly in the exterior cell layers |
